{
  "source": "patent US20160305924A1",
  "about": "(LAGUNA PHARMACEUTICALS , INC., priority 2013, published 2016)",
  "format_in_all_cases": "in vivo, human",
  "key": {"[1]": {"experiment": "Example 1: plasma concentrations of vanoxerine and metabolites after a 300 mg dose (LC-MS/MS)", "conditions": "for High concentration group average (plasma concentration): 10 patients high concentration group; for Low concentration group average (plasma concentration): 15 patients low concentration group; for Concentrations (plasma): mean of 25 patients", "method": "Each patient gave samples before administration of their dose, and then again at nine further time points, 30 minutes after administration, 1, 2, 3, 4, 6, 8, 12, and 24 hours post administration.\nEvaluation of samples: A total of 270 human plasma samples were received (in duplicate). The samples were shipped frozen over dry ice. The samples were stored at −70° C. (nominal) until analysis.\nFrozen samples were thawed at room temperature. Samples, calibrators, QC samples, sample blanks (blank plasma) and reagent blanks (water) were processed at room temperature. To 200 μL aliquots of each sample, calibrator, and QC sample are added 20 μL of 500 ng/mL of internal standard solution. A sample blank (blank plasma) and reagent blank (water) were also prepared, but without addition of internal standard solution (20 μL of diluent was added instead). To each sample, 200 μL of 1% ammonium hydroxide solution were added and vortex mixed. 3.0 mL of methyl tert-butyl ether were added and then vortex mix for 30 seconds. The sample is then centrifuged for 5 minutes at 4000 rpm and then transferred for about 30 minutes at −70° C. (nominal). The upper (organic) layer was transferred into an evaporation tubes and then evaporated under N2 stream at −50° C. for about 20 min. Samples were then reconstituted in 1000 μL reconstitution solution (80:20:0.1 water: acetonitrile: formic acid). Samples were mixed, allow to stand for about 3 minutes and mixed again. 900 μL of the sample solution was transferred to a 1.5 mL microcentrifuge tube and centrifuged for 5 minutes at 14000 rpm at room temperature. 800 μL of the sample solution was transferred to a glass autosampler vial, and then transferred to the autosampler for analysis. Samples were separated using reversed-phase liquid chromatography with a C18 column.\nChromatographic conditions were as follows: • HPLC instrument: Waters Alliance e2795 HT with temperature controlled autosampler • Column: Waters XBridge C18 3.5μ 100×2.1 mm P.N. 186003022, Lot No. 0143302711 with an appropriate guard column • Column temperature: 45° C. • Autosampler temp. 5° C. • Flow: 0.3 mL/min • Mobile phase A: 10 mM ammonium formate buffer:MeOH:ACN 80:10:10 • Mobile phase B: 10 mM ammonium formate buffer:MeOH:ACN 5:50:45 • Purge solvent: Water:ACN:formic acid 50:50:0.1 • Wash solvent: Water:ACN:formic acid 50:50:0.1 • Injection volume: 20 μL • Run Time: 15 minutes\nDetection was based on electro-spray interface in positive mode (ESI+) LC-MS/MS technique, using Micromass Quattro Premier XE MS/MS detector with MassLynx and QuanLynx software version 4.1. […] The MRM transition for all hydroxyl metabolites was m/z 467→203."}, "[2]": {"experiment": "Example 5: adverse events", "source_text": "(§1) The vanoxerine or identical appearing placebo was randomly assigned and administered in a double-blinded fashion."}, "[3]": {"experiment": "Example 3: daily doses for 14 days after a standardized meal, serum levels and adverse events", "method": "A standardized meal was served 15 minutes prior to each dosing."}, "[4]": {"experiment": "Example 2: daily doses for 11 consecutive days, PK and hemodynamics"}, "[5]": {"system": "recent onset symptomatic AF/AFL", "experiment": "Example 5: double-blinded placebo-controlled study, conversion to sinus rhythm", "source_text": "as §1"}, "[6]": {"experiment": "Example 4: daily doses for 7 days, hemodynamics and steady state", "conditions": "50, 100, 150 mg daily, all patients"}, "[7]": {"conditions": "0.5 h post administration, 1.00 = below LLOQ"}},
  "data": [
    {"molecule": "17-hydroxyl vanoxerine [M01]", "values": [
      {"measurement": "High concentration group average (plasma concentration)", "setting": "[1]; 2 h, 1.00 = below LLOQ", "value": 28.00, "unit": "ng/mL"},
      {"measurement": "Low concentration group average (plasma concentration)", "setting": "[1]; 8 h, 1.00 = below LLOQ", "value": 5.30, "unit": "ng/mL"},
      {"measurement": "Concentrations (plasma)", "setting": "[1]; [7]", "value": 1.93, "unit": "ng/mL"},
      {"measurement": "Concentrations (plasma)", "setting": "[1]; 1 h, 1.00 = below LLOQ", "value": 7.51, "unit": "ng/mL"},
      {"measurement": "Concentrations (plasma)", "setting": "[1]; 2 h, 1.00 = below LLOQ", "value": 19.65, "unit": "ng/mL"},
      {"measurement": "Concentrations (plasma)", "setting": "[1]; 3 h, 1.00 = below LLOQ", "value": 18.68, "unit": "ng/mL"},
      {"measurement": "Concentrations (plasma)", "setting": "[1]; 4 h, 1.00 = below LLOQ", "value": 16.42, "unit": "ng/mL"},
      {"measurement": "Concentrations (plasma)", "setting": "[1]; 6 h, 1.00 = below LLOQ", "value": 11.48, "unit": "ng/mL"},
      {"measurement": "Concentrations (plasma)", "setting": "[1]; 8 h, 1.00 = below LLOQ", "value": 8.98, "unit": "ng/mL"},
      {"measurement": "Concentrations (plasma)", "setting": "[1]; 12 h, 1.00 = below LLOQ", "value": 6.30, "unit": "ng/mL"},
      {"measurement": "Concentrations (plasma)", "setting": "[1]; 24 h, 1.00 = below LLOQ", "value": 3.66, "unit": "ng/mL"}
    ]},
    {"molecule": "Fc1ccc(C(OCCN2CCN(CCCc3ccccc3)CC2)c2ccc(F)cc2)cc1", "note": "[Vanoxerine, 1-[2-[bis(4-fluorophenyl)methoxy]ethyl]-4-(3-phenylpropyl)piperazine]", "values": [
      {"measurement": "Adverse events: serious adverse events", "setting": "[2]; 200 mg (22)", "value": 1, "unit": "SAE"},
      {"measurement": "Adverse events: subjects reporting", "setting": "[2]; 200 mg (22)", "value": "4 (18%) subjects (%)"},
      {"measurement": "Adverse events: subjects reporting", "setting": "[2]; 300 mg (25)", "value": "7 (28%) subjects (%)"},
      {"measurement": "Adverse events: serious adverse events", "setting": "[2]; 400 mg (25)", "value": 1, "unit": "SAE"},
      {"measurement": "Adverse events: subjects reporting", "setting": "[2]; 400 mg (25)", "value": "10 (40%) subjects (%)"},
      {"measurement": "tolerability", "setting": "[2]; 200, 300, 400 mg", "value": "well tolerated at all doses"},
      {"measurement": "steady-state serum levels versus dose", "setting": "[3]; 25, 75, 125 mg daily", "value": "disproportionately and statistically greater levels at higher doses"},
      {"measurement": "adverse events", "setting": "[3]; 25, 75, 125 mg daily for 14 days, healthy patients", "value": "No significant adverse events"},
      {"measurement": "T1/2 range", "setting": "[4]; 50 mg daily for 11 days", "value": "(4.71-110.57) hr"},
      {"measurement": "T1/2 range", "setting": "[4]; 75 mg daily for 11 days", "value": "(10.26-116.67) hr"},
      {"measurement": "steady state reached", "setting": "[4]; 50, 75 and 100 mg daily", "value": "≤ 8", "unit": "days"},
      {"measurement": "Tmax", "setting": "[4]; human, plasma, printed in the Dose column under 50 mg, read-out: TMax range", "value": "0.5 to 2", "unit": "h"},
      {"measurement": "Efficacy: Percent conversion", "setting": "[5]; 200 mg (22), 0-4 hr", "value": 18, "unit": "%"},
      {"measurement": "Efficacy: Percent conversion", "setting": "[5]; 200 mg (22), 0-8 hr", "value": 45, "unit": "%"},
      {"measurement": "Efficacy: Percent conversion", "setting": "[5]; 200 mg (22), 0-24 hr", "value": 59, "unit": "%"},
      {"measurement": "Efficacy: Percent conversion", "setting": "[5]; 300 mg (25), 0-4 hr", "value": 40, "unit": "%"},
      {"measurement": "Efficacy: Percent conversion", "setting": "[5]; 300 mg (25), 0-8 hr", "value": 52, "unit": "%"},
      {"measurement": "Efficacy: Percent conversion", "setting": "[5]; 300 mg (25), 0-24 hr", "value": 64, "unit": "%"},
      {"measurement": "Efficacy: Percent conversion", "setting": "[5]; 400 mg (25), 0-4 hr", "value": 52, "unit": "%"},
      {"measurement": "Efficacy: Percent conversion", "setting": "[5]; 400 mg (25), 0-8 hr", "value": 76, "unit": "%"},
      {"measurement": "Efficacy: Percent conversion", "setting": "[5]; 400 mg (25), 0-24 hr", "value": 84, "unit": "%"},
      {"measurement": "time to conversion to normal sinus rhythm, majority of patients", "setting": "[5]; at a Cmax plasma concentration of more than 40 ng/ml", "value": "under 12 hours"},
      {"measurement": "steady state levels achieved", "setting": "[6]", "value": "within one week"}
    ]},
    {"molecule": "16-hydroxyl vanoxerine [M02]", "values": [
      {"measurement": "High concentration group average (plasma concentration)", "setting": "[1]; 0.5 h, 1.00 = below LLOQ", "value": 1.00, "unit": "ng/mL"},
      {"measurement": "High concentration group average (plasma concentration)", "setting": "[1]; 1 h, 1.00 = below LLOQ", "value": 1.00, "unit": "ng/mL"},
      {"measurement": "High concentration group average (plasma concentration)", "setting": "[1]; 6 h, 1.00 = below LLOQ", "value": 1.00, "unit": "ng/mL"},
      {"measurement": "High concentration group average (plasma concentration)", "setting": "[1]; 8 h, 1.00 = below LLOQ", "value": 1.00, "unit": "ng/mL"},
      {"measurement": "High concentration group average (plasma concentration)", "setting": "[1]; 12 h, 1.00 = below LLOQ", "value": 1.00, "unit": "ng/mL"},
      {"measurement": "High concentration group average (plasma concentration)", "setting": "[1]; 24 h", "value": 0.00, "unit": "ng/mL"},
      {"measurement": "Low concentration group average (plasma concentration)", "setting": "[1]; 0.5 h, 1.00 = below LLOQ", "value": 1.00, "unit": "ng/mL"},
      {"measurement": "Low concentration group average (plasma concentration)", "setting": "[1]; 2 h, 1.00 = below LLOQ", "value": 1.00, "unit": "ng/mL"},
      {"measurement": "Low concentration group average (plasma concentration)", "setting": "[1]; 3 h, 1.00 = below LLOQ", "value": 1.00, "unit": "ng/mL"},
      {"measurement": "Low concentration group average (plasma concentration)", "setting": "[1]; 4 h, 1.00 = below LLOQ", "value": 1.00, "unit": "ng/mL"},
      {"measurement": "Low concentration group average (plasma concentration)", "setting": "[1]; 6 h, 1.00 = below LLOQ", "value": 1.00, "unit": "ng/mL"},
      {"measurement": "Low concentration group average (plasma concentration)", "setting": "[1]; 8 h, 1.00 = below LLOQ", "value": 1.00, "unit": "ng/mL"},
      {"measurement": "Low concentration group average (plasma concentration)", "setting": "[1]; 12 h, 1.00 = below LLOQ", "value": 1.00, "unit": "ng/mL"},
      {"measurement": "Low concentration group average (plasma concentration)", "setting": "[1]; 24 h, 1.00 = below LLOQ", "value": 1.00, "unit": "ng/mL"},
      {"measurement": "Concentrations (plasma)", "setting": "[1]; [7]", "value": 1.00, "unit": "ng/mL"},
      {"measurement": "Concentrations (plasma)", "setting": "[1]; 1 h, 1.00 = below LLOQ", "value": 1.02, "unit": "ng/mL"},
      {"measurement": "Concentrations (plasma)", "setting": "[1]; 2 h, 1.00 = below LLOQ", "value": 1.02, "unit": "ng/mL"},
      {"measurement": "Concentrations (plasma)", "setting": "[1]; 3 h, 1.00 = below LLOQ", "value": 1.01, "unit": "ng/mL"},
      {"measurement": "Concentrations (plasma)", "setting": "[1]; 4 h, 1.00 = below LLOQ", "value": 1.01, "unit": "ng/mL"},
      {"measurement": "Concentrations (plasma)", "setting": "[1]; 6 h, 1.00 = below LLOQ", "value": 1.00, "unit": "ng/mL"},
      {"measurement": "Concentrations (plasma)", "setting": "[1]; 8 h, 1.00 = below LLOQ", "value": 1.00, "unit": "ng/mL"},
      {"measurement": "Concentrations (plasma)", "setting": "[1]; 12 h, 1.00 = below LLOQ", "value": 1.00, "unit": "ng/mL"},
      {"measurement": "Concentrations (plasma)", "setting": "[1]; 24 h, 1.00 = below LLOQ", "value": 1.00, "unit": "ng/mL"}
    ]}
  ]
}
